In patent publication US11911396B2, “Use of compound in preparation of drug for treating cerebral small vessel disease” (GUANGZHOU CELLPROTEK PHARMACEUTICAL CO., LTD, priority 2017, dated 2024):

Legend:
CD163 = test: Western blot of CD163 in prefrontal cortex brain tissue, acute hypobaric hypoxia model; type: in vivo, cynomolgus monkeys; settings: FIGS. 4A and 4B
Excerpt: FIG. 4. Triol enhanced the clearance of free hemoglobin in brain tissue by up-regulating CD163 and Heme Oxygenase-1 (HO-1) protein levels. A. Protein expression of hemoglobin scavenger receptor CD163 and heme oxygenase HO-1 in the brain tissue of the prefrontal cortex of cynomolgus monkeys; B. Statistics of protein relative gray scan values. The gray value was obtained by scanning with Image Lab software, and the relative value was obtained after normalizing with α-Tubulin. NN: Normobaric Normoxia group (N=3); HH: Hypobaric Hypoxia group (N=3); HH+Triol: Hypobaric Hypoxia with Triol administration group (N=3); HH+PROG: Hypobaric Hypoxia with progesterone administration group (N=3). […]
(§1) 1) Preparation of protein samples (see the instructions of M-PER protein lysate): After the cells had been processed for the specified time, the medium was aspirated and then washed with 4° C. pre-chilled PBS (0.01M pH7.2˜7.3) for 3 times. […] 2) BCA protein quantification (see the instructions of BCA protein quantification kit): corresponding components were added to a 96-well detection plate by the ratio of quantification reagent A solution:B solution:ddH2O:protein=100:2:7.5:5, and albumin standards diluted in gradient concentration were added to draw a standard curve. […] After the reaction, the absorbance of each well at a wavelength of 562 nm was detected using a microplate reader. […]

Iba-1 in microglia BV2 = test: Western blot of Iba-1 in BV2 cells stimulated with hemoglobin and hypoxia, with or without CD163 RNA interference; type: cell-based; settings: 10 μM Triol, 20 μM hemoglobin and 1% hypoxia for 6 hours
Description: FIG. 7. […] According to the manufacturer's instructions, RNAiMAX was used to transfect CD163 No. 01 and scrambled interference fragment NC respectively to BV2 cells, BV2 cell culture medium was then added with or without 10 μM Triol, and BV2 cells were stimulated with 20 μM hemoglobin and 1% hypoxia for 6 hours, after which protein samples were collected, and the expression of microglial activation markers Iba-1 and CD11b was detected by Western blot.
as §1, with “times. 150-200 ul of M-PER protein lysate mixed with protease inhibitor (PMSF 100×) was added, which was lysed on ice for 10 minutes to fully lyse the cells.” for “times.”

C[C@@]12CCCC1C1C[C@@H](O)[C@@]3(O)C[C@@H](O)CC[C@]3(C)C1CC2 (stereo partly drawn) [Triol, 5α-androst-3β,5,6β-triol]
down-regulation of CD163 expression caused by acute hypobaric hypoxia (CD163): significantly restored | effect on the up-regulation of Iba-1 in hypoxia and hemoglobin-activated microglia cells (Iba-1 in microglia BV2; without CD163 interference): inhibitory effect | inhibitory effect on the up-regulation of Iba-1 after interfering CD163 (Iba-1 in microglia BV2; CD163 RNA interference, FIG. 7): cancelled
